Source: patent US20250332173A1, “COMPOUNDS AND METHODS FOR MODULATING NUCLEIC ACID SPLICING” (REMIX THERAPEUTICS INC., priority 2021, published 2025)
Read-outs that look alike come from different tables or passages of the source.

Experiments:
[1] = test system: Target C; assay: RT-qPCR splicing assay panel, Target C canonical junction (CJ) mRNA; format: cell-based, human; conditions: Table 5 panel, canonical junction qPCR, compound concentration having 50% response in CJ decrease, read-out: Target C IC50 (decrease in CJ mRNA levels)
Summary of the method: (§1)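 A673 or K562 cells were treated for 24 h at 37 °C with compound in 11-point 3-fold dilution (top 10 uM final, DMSO ≤0.25%). Lysates then went to one-step RT-qPCR measuring canonical-junction mRNA, normalized to GAPDH, GUSB or PPIA.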

[2] = test system: SMN2 mRNA; assay: RT-qPCR splicing assay, SMN2 canonical junction (CJ) mRNA; format: cell-based, human; conditions: Table 5 panel, canonical junction qPCR, compound concentration having 50% response in CJ decrease, read-out: SMN2 IC50 (decrease in CJ mRNA levels)
Summary of the method: as §1

[3] = test system: MYB mRNA; assay: RT-qPCR splicing assay, MYB canonical junction (CJ) and alternative junction (AJ) mRNA; format: cell-based, human; conditions: for AC50: increase in MYB alternative junction (AJ) mRNA, read-out: MYB AJ AC50
Summary of the method: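 A673 cells (normalized to PPIA) or K562 cells (normalized to GAPDH or GUSB) were treated 24 h at 37 °C with an 11-point 3-fold dilution series, top 10 uM, DMSO ≤0.25%. Cell lysates went to one-step RT-qPCR measuring canonical- and alternative-junction MYB or HTT transcripts.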

[4] = test system: K562 (human chronic myelogenous leukemia) cells; assay: Cell Titer Glo 2.0 cell viability assay; format: cell-based; conditions: Homo sapiens, K562, 72 h, K562 cells, 72 hours, Cell Titer Glo 2.0; read-out: K562 GI50
[5] = Homo sapiens, Table 5 panel, canonical junction qPCR, compound concentration having 50% response in CJ decrease, read-out: MYB IC50 (decrease in CJ mRNA levels)
[6] = Homo sapiens, decrease in MYB canonical junction (CJ) mRNA, RT-qPCR, read-out: MYB CJ IC50

SMILES	IC50 ([1]; Homo sapiens) [µM]	IC50 ([2]; Homo sapiens) [µM]	IC50 [3, 5] [µM]	IC50 [3, 6] [µM]	AC50 ([3]; Homo sapiens, RT-qPCR) [µM]	GI50 [4] [µM]	IC50 [1] [µM]	IC50 [2] [µM]	IC50 ([3]; Table 5 panel, canonical junction qPCR, compound concentration having 50% response in CJ decrease, read-out: MYB IC50 (decrease in CJ mRNA levels)) [µM]	IC50 ([3]; decrease in MYB canonical junction (CJ) mRNA, RT-qPCR, read-out: MYB CJ IC50) [µM]	AC50 ([3]; RT-qPCR) [µM]
Cc1cn2nc(-c3cc(F)c4c(=O)n(C5CCNCC5)cnc4c3)cc(C)c2n1 [Compound 243]	< 0.1	< 0.1	< 0.1	< 0.1	< 0.1	< 0.1					
Cc1cn2cc(-c3ccc4c(=O)n(C5CCNCC5)cnc4c3)c(C)cc2n1 [Compound 244]	> 10	0.1 to 1	> 10	> 10	> 10	> 10					
Cc1nc2c(F)cc(-c3ccc4c(=O)n(C5CCNCC5)cnc4c3)cc2o1 [Compound 245]	0.1 to 1	< 0.1	0.1 to 1	0.1 to 1	0.1 to 1	0.1 to 1					
Cc1cn2cc(-c3ccc4c(=O)n(C5CCN(C)CC5)cnc4c3)c(C)cc2n1 [Compound 246]	1 to 10	1 to 10	1 to 10	1 to 10	1 to 10	1 to 10					
Cc1cn2cc(-c3ccc4c(c3)CCN(C3CCNCC3)C4=O)cc(F)c2n1 [Compound 247]	1 to 10	< 0.1	0.1 to 1	0.1 to 1	0.1 to 1	0.1 to 1					
Cc1cn2cc(-c3ccc4c(=O)n(C5CCNCC5)ncc4c3)cc(F)c2n1 [Compound 248]	0.1 to 1	< 0.1	0.1 to 1	0.1 to 1	0.1 to 1	< 0.1					
Cn1cc2cc(-c3ccc4c(=O)n(C5CCNCC5)ncc4c3)cc(F)c2n1 [Compound 249]	1 to 10	1 to 10	1 to 10	1 to 10	1 to 10	1 to 10					
Cc1nc2c(F)cc(-c3ccc4c(=O)n(C5CCNCC5)ncc4c3)cc2o1 [Compound 250]	0.1 to 1	< 0.1	0.1 to 1	0.1 to 1	0.1 to 1	< 0.1					
Cc1cc(-c2ccc3c(=O)n(C4CCNCC4)ncc3c2)cc2cn(C)nc12 [Compound 251]	0.1 to 1	< 0.1	0.1 to 1	0.1 to 1	0.1 to 1	1 to 10					
Cc1cn2cc(-c3ccc4c(c3)CCN(C3CCNCC3)C4=O)cc(C(F)(F)F)c2n1 [Compound 252]	> 10	0.1 to 1	1 to 10	1 to 10	1 to 10	1 to 10					
Cc1nc2c(F)cc(-c3ccc4c(=O)n(C5CCNCC5)ncc4c3)cc2s1 [Compound 253]	1 to 10	0.1 to 1	1 to 10	1 to 10	1 to 10	0.1 to 1					
Cc1cn2cc(-c3ccc4c(=O)n(C5CCNCC5)ncc4c3)c(C)cc2n1 [Compound 254]	1 to 10	1 to 10	1 to 10	1 to 10	1 to 10	1 to 10					
Cc1cn2cc(-c3ccc4c(=O)n(C5CCNCC5)ncc4c3)ncc2n1 [Compound 255]	> 10	0.1 to 1	1 to 10	1 to 10	1 to 10	0.1 to 1					
Cc1cn2cc(-c3ccc4c(=O)n(C5CCNCC5)ncc4c3)cc(Cl)c2n1 [Compound 256]	> 10	< 0.1	0.1 to 1	0.1 to 1	0.1 to 1	< 0.1					
Cc1cn2cc(-c3ccc4c(=O)n(C5CCNCC5)ncc4c3)cc(C)c2n1 [Compound 257]	1 to 10	< 0.1	0.1 to 1	0.1 to 1	0.1 to 1	< 0.1					
Cc1cn2nc(-c3ccc4c(=O)n(C5CCNCC5)ncc4c3)nc2c(C)n1 [Compound 259]	0.1 to 1	0.1 to 1	0.1 to 1	0.1 to 1	0.1 to 1	0.1 to 1					
Cc1cn2nc(-c3ccc4c(=O)n(C5CCNCC5)ncc4c3)cc2c(C)n1 [Compound 260]	1 to 10	0.1 to 1	1 to 10	0.1 to 1	1 to 10	0.1 to 1					
O=c1c2ccc(-c3cn[nH]c3)cc2cnn1C1CCNCC1 [Compound 261]	> 10	1 to 10	> 10	> 10	> 10	> 10					
Cc1cn2cc(-c3ccc4c(=O)n(C5CCNCC5)ncc4c3)cc(C(F)(F)F)c2n1 [Compound 262]	1 to 10	< 0.1	1 to 10	0.1 to 1	1 to 10	0.1 to 1					
Cn1cc2ccc(-c3ccc4c(=O)n(C5CCNCC5)ncc4c3)cc2n1 [Compound 263]	> 10	> 10	> 10	> 10	> 10	1 to 10					
Cc1cn2nc(-c3ccc4c(=O)n(C5CCNC5)ncc4c3)cc(C)c2n1 (stereo not drawn) [Compound 264]	> 10	0.1 to 1	1 to 10	1 to 10	1 to 10	1 to 10					
Cc1cn2nc(-c3ccc4c(=O)n(C5CCN(C)CC5)ncc4c3)cc(C)c2n1 [Compound 265]	0.1 to 1	< 0.1	0.1 to 1	< 0.1	0.1 to 1	0.1 to 1					
Cc1cn2nc(-c3ccc4c(=O)n([C@@H]5CCNC6(CC6)C5)cnc4c3)cc(C)c2n1 [Compound 444]						0.1 to 1	0.1 to 1	< 0.1	< 0.1	< 0.1	< 0.1
